The values that follow are results of earlier work, collected in patent publication US20090182024A1, “EXTENDED RELEASE TABLET FORMULATION CONTAINING PRAMIPEXOLE OR A PHARMACEUTICALLY ACCEPTABLE SALT THEREOF” (BOEHRINGER INGELHEIM INTERNATIONAL GMBH, priority 2004, published 2009).

Structures can show the parent of a compound that is named as a salt.

For series [1] the following is noted: in vivo.
Test in series [2]: not given
This is another data set of the same source.

Regarding `CCCN[C@H]1CCc2nc(N)sc2C1` [Pramipexole, (S)-2-amino-4,5,6,7-tetrahydro-6-(propylamino)benzothiazole], in series [1], the kinetics result is listed as “linear kinetics”. In addition, the stability in solution result (in solution) is recorded as “light sensitive”. Moreover, the “stability in the solid state” value (solid state) was “very stable”.

As to `CCCN[C@H]1CCc2nc(N)sc2C1` [Pramipexole dihydrochloride monohydrate, pramipexole dihydrochloride monohydrate], the “solubility in buffer media” value in series [2] (between pH 2 and pH 7.4) is on record as “above 10 mg/mL”. For the same compound, in series [2] (water), the Water solubility result is given as “more than 20 mg/mL”.
